Measurements published in US9796711B2, “Substituted pyrazolo[3,4-b]pyridin-6-carboxylic acids and method of use” (AbbVie S.àr.l., priority 2015, dated 2017).

Columns and labels:
[1] = biological target: T1, ΔF508-CFTR (Homo sapiens, UniProt P13569, DEL508-508); test: CFTR cell surface levels using HRP-tagged ΔF508-CFTR expressing CFBE cells, in the presence of a co-corrector; format: cell-based; conditions: HRP-tagged ΔF508-CFTR expressing CFBE cells, in the presence of 3 μM co-corrector; for EC50: read-out: EC50
T1 construct: host or cells: CFBE41o-, doxycycline-inducible
How it was run: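 Cells were seeded with 0.5 μg/mL doxycycline and held 68 h at 37 °C. Test compounds plus 3 μM co-corrector (final 0.1% DMSO) were then added for 20 h at 33 °C. Washed cells received HRP substrate, and luminescence was normalized between DMSO and 3 μM co-corrector controls.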

[2] = biological target: T1, ΔF508-CFTR; test: CFTR cell surface levels using HRP-tagged ΔF508-CFTR expressing CFBE cells, intrinsic corrector capacity; format: cell-based; conditions: for EC50: read-out: EC50
How it was run: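 Here the cells express ΔF508-CFTR with horseradish peroxidase inserted in extracellular loop 4, so only rescued channel at the surface gives luminescent signal. Compounds act on their own, 20 h at the reduced temperature of 33 °C; values are percent activity relative to DMSO and a 3 μM corrector.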

[3] = HRP-tagged ΔF508-CFTR expressing CFBE cells, intrinsic corrector capacity (no co-corrector), 33° C., 20 hours
[4] = HRP-tagged ΔF508-CFTR CFBE41o- cells, compounds alone (intrinsic corrector capacity), 20 hours at 33° C., positive control 3 μM corrector
[5] = HRP-tagged ΔF508-CFTR CFBE41o- cells, compounds alone (intrinsic corrector capacity), 20 hours at 33° C.

T1 sequence (P13569 with tags, fused parts or gaps DEL508-508): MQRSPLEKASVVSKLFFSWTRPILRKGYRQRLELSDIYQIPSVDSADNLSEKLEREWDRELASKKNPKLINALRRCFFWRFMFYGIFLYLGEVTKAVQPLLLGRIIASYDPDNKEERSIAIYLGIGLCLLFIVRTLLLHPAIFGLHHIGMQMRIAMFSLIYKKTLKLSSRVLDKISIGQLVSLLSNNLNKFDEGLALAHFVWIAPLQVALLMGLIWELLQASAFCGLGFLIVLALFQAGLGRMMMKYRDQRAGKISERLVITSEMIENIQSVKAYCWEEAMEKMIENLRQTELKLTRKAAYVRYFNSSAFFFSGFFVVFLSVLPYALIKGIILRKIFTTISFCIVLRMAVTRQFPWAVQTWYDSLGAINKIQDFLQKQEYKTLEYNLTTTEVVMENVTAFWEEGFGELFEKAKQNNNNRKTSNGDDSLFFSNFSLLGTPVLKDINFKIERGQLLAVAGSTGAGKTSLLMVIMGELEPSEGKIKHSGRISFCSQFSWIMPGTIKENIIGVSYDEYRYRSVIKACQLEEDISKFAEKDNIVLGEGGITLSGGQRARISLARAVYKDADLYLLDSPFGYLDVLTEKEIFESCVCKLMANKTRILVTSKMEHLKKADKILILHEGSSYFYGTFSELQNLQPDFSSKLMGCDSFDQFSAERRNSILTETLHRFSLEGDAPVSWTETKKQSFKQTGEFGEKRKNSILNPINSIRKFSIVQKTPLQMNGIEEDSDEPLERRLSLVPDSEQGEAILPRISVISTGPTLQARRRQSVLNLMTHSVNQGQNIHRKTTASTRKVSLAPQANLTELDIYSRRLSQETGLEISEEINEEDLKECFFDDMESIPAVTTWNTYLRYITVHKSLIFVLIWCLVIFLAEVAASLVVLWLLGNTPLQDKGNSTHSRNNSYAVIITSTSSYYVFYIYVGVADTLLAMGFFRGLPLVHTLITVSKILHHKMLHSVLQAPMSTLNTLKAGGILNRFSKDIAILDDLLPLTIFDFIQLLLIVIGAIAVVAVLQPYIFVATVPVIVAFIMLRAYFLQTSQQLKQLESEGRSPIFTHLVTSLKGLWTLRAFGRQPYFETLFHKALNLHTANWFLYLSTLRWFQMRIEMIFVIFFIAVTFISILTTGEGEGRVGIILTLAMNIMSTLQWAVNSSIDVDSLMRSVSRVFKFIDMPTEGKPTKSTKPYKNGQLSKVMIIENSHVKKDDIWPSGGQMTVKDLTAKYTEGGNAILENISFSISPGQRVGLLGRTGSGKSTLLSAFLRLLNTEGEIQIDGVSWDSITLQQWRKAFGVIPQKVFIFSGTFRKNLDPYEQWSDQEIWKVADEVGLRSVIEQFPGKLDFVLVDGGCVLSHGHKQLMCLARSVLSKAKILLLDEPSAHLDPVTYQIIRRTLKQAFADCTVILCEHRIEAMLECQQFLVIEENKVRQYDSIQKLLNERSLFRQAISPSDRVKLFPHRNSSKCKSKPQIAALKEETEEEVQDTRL

SMILES	% Activation [1] [%]	EC50 [1] [nM]	% Activation [2, 3] [%]	EC50 [2, 3] [nM]	% Activation [2, 4] [%]	EC50 [2, 5] [nM]
COCC1CCN(c2cc(C(=O)O)nc3c2c(C2CCC2)nn3-c2ccccc2)CC1 [compound 405, 3-cyclobutyl-4-[4-(methoxymethyl)piperidin-1-yl]-1-phenyl-1H-pyrazolo[3,4-b]pyridine-6-carboxylic acid]	512.4	226	298.75	347		
O=C(O)c1cc(N2CC[C@@H](F)C2)c2c(C3CCC3)nn(-c3ccccc3)c2n1 [compound 541, 3-cyclobutyl-4-[(3R)-3-fluoropyrrolidin-1-yl]-1-phenyl-1H-pyrazolo[3,4-b]pyridine-6-carboxylic acid]	287.85	799	120.7	988		
COC(=O)N1CC(c2nn(-c3ccccc3)c3nc(C(=O)O)cc(-c4ccc(N5CCOCC5)cc4)c23)C1 [compound 86, 3-[1-(methoxycarbonyl)azetidin-3-yl]-4-[4-(morpholin-4-yl)phenyl]-1-phenyl-1H-pyrazolo[3,4-b]pyridine-6-carboxylic acid]	300.25	2550			129.75	3340
Cc1nn(-c2ccccc2)c2nc(C(=O)O)cc(OCC3(C)COC3)c12 [compound 375, 3-methyl-4-[(3-methyloxetan-3-yl)methoxy]-1-phenyl-1H-pyrazolo[3,4-b]pyridine-6-carboxylic acid]	184.1	1670			36.645	3340
COCC1CCN(c2cc(C(=O)O)nc3c2c(C(C)C)nn3-c2cc(C)nc(C)c2)CC1 [compound 677, 1-(2,6-dimethylpyridin-4-yl)-4-[4-(methoxymethyl)piperidin-1-yl]-3-(propan-2-yl)-1H-pyrazolo[3,4-b]pyridine-6-carboxylic acid]	260.45	6550	67.38	1570		
COCCN(C)c1ccc(-c2cc(C(=O)O)nc3c2c(C(C)C)nn3C2CCCCC2)cn1 [compound 170, 1-cyclohexyl-4-{6-[(2-methoxyethyl)(methyl)amino]pyridin-3-yl}-3-(propan-2-yl)-1H-pyrazolo[3,4-b]pyridine-6-carboxylic acid]	482.4	504			208.6	738
Cc1nn(-c2ccccc2)c2nc(C(=O)O)cc(OCC3(S(C)(=O)=O)CCC3)c12 [compound 384, 4-{[1-(methanesulfonyl)cyclobutyl]methoxy}-3-methyl-1-phenyl-1H-pyrazolo[3,4-b]pyridine-6-carboxylic acid]	123	5010			8.1785	5010
Cc1nn(-c2cccc(N(C)C)c2)c2nc(C(=O)O)cc(-c3ccc(N4CCOCC4)cc3)c12 [compound 36, 1-[3-(dimethylamino)phenyl]-3-methyl-4-[4-(morpholin-4-yl)phenyl]-1H-pyrazolo[3,4-b]pyridine-6-carboxylic acid]	364.5	3340			118.9	2000
CC(=O)N1CCC(n2nc(C(C)C)c3c(-c4ccc(N5CCOCC5)cc4)cc(C(=O)O)nc32)CC1 [compound 71, 1-(1-acetylpiperidin-4-yl)-4-[4-(morpholin-4-yl)phenyl]-3-(propan-2-yl)-1H-pyrazolo[3,4-b]pyridine-6-carboxylic acid]	126.8	> 10000			17.23	> 10000
O=C(O)c1cc(N2CCC(N3CCC(C(F)(F)F)C3)CC2)c2c(C3CCC3)nn(-c3ccc(F)cc3)c2n1 (stereo not shown) [compound 869]	513.05	37.7	299.1	113		
